Data: PubChem BioAssay (NCI)
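48-hour exposure; five concentrations; linearly interpolated endpoints. Abbreviation: GI50, concentration required for 50% inhibition of growth. At the TGI there is no net growth.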

Columns and labels:
Assay in all cases: NCI tumour cell line growth inhibition, 48 h
786-0 renal = test system: 786-0 renal
A498 renal = test system: A498 renal
A549 NSCLC = test system: A549 NSCLC
ACHN renal = test system: ACHN renal
BT-549 breast = test system: BT-549 breast
HCC-2998 colon = test system: HCC-2998 colon
HCT-116 colon = test system: HCT-116 colon
HOP-62 NSCLC = test system: HOP-62 NSCLC
HS 578T breast = test system: HS 578T breast
IGROV1 ovarian = test system: IGROV1 ovarian
LOX IMVI melanoma = test system: LOX IMVI melanoma
MALME-3M melanoma = test system: MALME-3M melanoma
MCF7 breast = test system: MCF7 breast
MDA-MB-231 breast = test system: MDA-MB-231 breast
NCI-H226 lung = test system: NCI-H226 lung
NCI-H23 lung = test system: NCI-H23 lung
NCI-H460 lung = test system: NCI-H460 lung
NCI-H522 lung = test system: NCI-H522 lung
NCI/ADR-RES ovarian = test system: NCI/ADR-RES ovarian
OVCAR-4 ovarian = test system: OVCAR-4 ovarian
OVCAR-5 ovarian = test system: OVCAR-5 ovarian
OVCAR-8 ovarian = test system: OVCAR-8 ovarian
RXF 393 renal = test system: RXF 393 renal
SF-268 CNS = test system: SF-268 CNS
SF-295 CNS = test system: SF-295 CNS
SF-539 CNS = test system: SF-539 CNS
SK-MEL-2 melanoma = test system: SK-MEL-2 melanoma
SK-MEL-5 melanoma = test system: SK-MEL-5 melanoma
SK-OV-3 ovarian = test system: SK-OV-3 ovarian
SN12C renal = test system: SN12C renal
SNB-19 CNS = test system: SNB-19 CNS
SNB-75 CNS = test system: SNB-75 CNS
T-47D breast = test system: T-47D breast
TK-10 renal = test system: TK-10 renal
U251 CNS = test system: U251 CNS
UACC-62 melanoma = test system: UACC-62 melanoma
UO-31 renal = test system: UO-31 renal
CAKI-1 renal = test system: CAKI-1 renal
CCRF-CEM leukemia = test system: CCRF-CEM leukemia
COLO 205 colon = test system: COLO 205 colon
DU-145 prostate = test system: DU-145 prostate
EKVX NSCLC = test system: EKVX NSCLC
HCT-15 colon = test system: HCT-15 colon
HL-60(TB) leukemia = test system: HL-60(TB) leukemia
HOP-92 NSCLC = test system: HOP-92 NSCLC
K-562 leukemia = test system: K-562 leukemia
KM12 colon = test system: KM12 colon
M14 melanoma = test system: M14 melanoma
MDA-MB-435 = test system: MDA-MB-435
OVCAR-3 ovarian = test system: OVCAR-3 ovarian
PC-3 prostate = test system: PC-3 prostate
RPMI-8226 leukemia = test system: RPMI-8226 leukemia
SK-MEL-28 melanoma = test system: SK-MEL-28 melanoma
SR leukemia = test system: SR leukemia
SW-620 colon = test system: SW-620 colon
UACC-257 melanoma = test system: UACC-257 melanoma

In the case of `Cc1ccc(S(=O)(=O)NCCNc2nccc(-c3c(-c4ccc(F)cc4)nc4sccn34)n2)cc1`, the GI50 (786-0 renal) is reported as 5.65 µM, the TGI (786-0 renal) is reported as 26.8 µM and the GI50 (A498 renal) is reported as 2.33 µM. It also gave a TGI (A498 renal) of 14.4 µM, a GI50 (A549 NSCLC) of 3.44 µM and a TGI (A549 NSCLC) greater than 100 µM. For the same compound, the GI50 (ACHN renal) was 2.3 µM, the TGI (ACHN renal) was greater than 100 µM and the GI50 (BT-549 breast) was 5.83 µM. The TGI (BT-549 breast) was 36 µM, the GI50 (HCC-2998 colon) was greater than 100 µM and the TGI (HCC-2998 colon) was greater than 100 µM. It also gave a GI50 (HCT-116 colon) of 3.88 µM, a TGI (HCT-116 colon) greater than 100 µM and a GI50 (HOP-62 NSCLC) of 13.5 µM. It also gave a TGI (HOP-62 NSCLC) of 29.3 µM, a GI50 (HS 578T breast) of 7.7 µM and a TGI (HS 578T breast) of 75.5 µM. It also gave a GI50 (IGROV1 ovarian) of 3.09 µM, a TGI (IGROV1 ovarian) greater than 100 µM and a GI50 (LOX IMVI melanoma) of 4.86 µM. It also gave a TGI (LOX IMVI melanoma) greater than 100 µM, a GI50 (MALME-3M melanoma) of 5.07 µM and a TGI (MALME-3M melanoma) greater than 100 µM. The GI50 (MCF7 breast) was 1.48 µM, the TGI (MCF7 breast) was greater than 100 µM and the GI50 (MDA-MB-231 breast) was 11 µM. The TGI (MDA-MB-231 breast) was greater than 100 µM, the GI50 (NCI-H226 lung) was 5.14 µM and the TGI (NCI-H226 lung) was 97.3 µM. The GI50 (NCI-H23 lung) was 7.14 µM, the TGI (NCI-H23 lung) was 70.9 µM and the GI50 (NCI-H460 lung) was 3.5 µM. For the same compound, the TGI (NCI-H460 lung) was greater than 100 µM, the GI50 (NCI-H522 lung) was 6.95 µM and the TGI (NCI-H522 lung) was greater than 100 µM. It also gave a GI50 (NCI/ADR-RES ovarian) of 4.83 µM, a TGI (NCI/ADR-RES ovarian) greater than 100 µM and a GI50 (OVCAR-4 ovarian) of 4.98 µM. It also gave a TGI (OVCAR-4 ovarian) of 46.7 µM, a GI50 (OVCAR-5 ovarian) greater than 100 µM and a TGI (OVCAR-5 ovarian) greater than 100 µM. It also gave a GI50 (OVCAR-8 ovarian) of 5 µM, a TGI (OVCAR-8 ovarian) of 53.8 µM and a GI50 (RXF 393 renal) of 4.02 µM. For the same compound, the TGI (RXF 393 renal) was 29.4 µM, the GI50 (SF-268 CNS) was 5.58 µM and the TGI (SF-268 CNS) was 37.4 µM. It also gave a GI50 (SF-295 CNS) of 12.6 µM, a TGI (SF-295 CNS) of 77.1 µM and a GI50 (SF-539 CNS) of 12.3 µM. It also gave a TGI (SF-539 CNS) of 31 µM, a GI50 (SK-MEL-2 melanoma) of 7.55 µM and a TGI (SK-MEL-2 melanoma) of 38.2 µM. The GI50 (SK-MEL-5 melanoma) was 3.52 µM, the TGI (SK-MEL-5 melanoma) was greater than 100 µM and the GI50 (SK-OV-3 ovarian) was 12.4 µM. It also gave a TGI (SK-OV-3 ovarian) of 40.3 µM, a GI50 (SN12C renal) of 4.78 µM and a TGI (SN12C renal) greater than 100 µM. The GI50 (SNB-19 CNS) was 9.41 µM, the TGI (SNB-19 CNS) was 48.4 µM and the GI50 (SNB-75 CNS) was 2.65 µM. For the same compound, the TGI (SNB-75 CNS) was 15 µM, the GI50 (T-47D breast) was 3.85 µM and the TGI (T-47D breast) was greater than 100 µM. For the same compound, the GI50 (TK-10 renal) was 7.8 µM, the TGI (TK-10 renal) was 42.6 µM and the GI50 (U251 CNS) was 4.72 µM. The TGI (U251 CNS) was 22.6 µM, the GI50 (UACC-62 melanoma) was 3.95 µM and the TGI (UACC-62 melanoma) was greater than 100 µM. The GI50 (UO-31 renal) was 2.38 µM and the TGI (UO-31 renal) was greater than 100 µM.
`C=CC1CC1(CO)COc1cc(Cl)nc(N)n1` (configuration not stated) showed a GI50 (SNB-75 CNS) of 86.4 µM.
With `Cc1cc2c(cc1Cl)SC(=Nc1ccc(Cl)cc1)N(S(=O)(=O)c1ccccc1)S2(=O)=O` the GI50 (786-0 renal) was 4.54 µM, the TGI (786-0 renal) was 18.1 µM and the GI50 (A549 NSCLC) was 13.7 µM. The TGI (A549 NSCLC) was 32.2 µM, the GI50 (ACHN renal) was 1.95 µM and the TGI (ACHN renal) was 10.5 µM. For the same compound, the GI50 (BT-549 breast) was 11.1 µM, the TGI (BT-549 breast) was 24.5 µM and the GI50 (CAKI-1 renal) was 5.37 µM. For the same compound, the TGI (CAKI-1 renal) was 23.4 µM, the GI50 (CCRF-CEM leukemia) was 4.92 µM and the TGI (CCRF-CEM leukemia) was 27.4 µM. It also gave a GI50 (COLO 205 colon) of 2.89 µM, a TGI (COLO 205 colon) greater than 100 µM and a GI50 (DU-145 prostate) of 12.6 µM. The TGI (DU-145 prostate) was 25.1 µM, the GI50 (EKVX NSCLC) was 15.1 µM and the TGI (EKVX NSCLC) was 29.3 µM. The GI50 (HCT-116 colon) was 9.78 µM, the TGI (HCT-116 colon) was 21.5 µM and the GI50 (HCT-15 colon) was 2.77 µM. The TGI (HCT-15 colon) was 13 µM, the GI50 (HL-60(TB) leukemia) was 11.7 µM and the TGI (HL-60(TB) leukemia) was 32.7 µM. The GI50 (HOP-62 NSCLC) was 13.5 µM, the TGI (HOP-62 NSCLC) was 26.4 µM and the GI50 (HOP-92 NSCLC) was 5.39 µM. It also gave a TGI (HOP-92 NSCLC) of 26.1 µM, a GI50 (HS 578T breast) of 20.7 µM and a TGI (HS 578T breast) of 45.9 µM. It also gave a GI50 (IGROV1 ovarian) of 2.55 µM, a TGI (IGROV1 ovarian) of 31.7 µM and a GI50 (K-562 leukemia) of 9.19 µM. For the same compound, the TGI (K-562 leukemia) was 58.2 µM, the GI50 (KM12 colon) was 20 µM and the TGI (KM12 colon) was 50.4 µM. The GI50 (LOX IMVI melanoma) was 1.58 µM, the TGI (LOX IMVI melanoma) was 7.18 µM and the GI50 (M14 melanoma) was 12.6 µM. It also gave a TGI (M14 melanoma) of 27.6 µM, a GI50 (MCF7 breast) of 6.05 µM and a TGI (MCF7 breast) of 22.4 µM. For the same compound, the GI50 (MDA-MB-231 breast) was 2.79 µM, the TGI (MDA-MB-231 breast) was 16 µM and the GI50 (MDA-MB-435) was 5.18 µM. For the same compound, the TGI (MDA-MB-435) was 19.6 µM, the GI50 (NCI-H226 lung) was 11.5 µM and the TGI (NCI-H226 lung) was 35.4 µM. For the same compound, the GI50 (NCI-H23 lung) was 1.55 µM, the TGI (NCI-H23 lung) was 5.96 µM and the GI50 (NCI-H460 lung) was 11.8 µM. The TGI (NCI-H460 lung) was 29.2 µM, the GI50 (NCI-H522 lung) was 12.4 µM and the TGI (NCI-H522 lung) was 52.8 µM. It also gave a GI50 (NCI/ADR-RES ovarian) of 5.25 µM, a TGI (NCI/ADR-RES ovarian) of 19.3 µM and a GI50 (OVCAR-3 ovarian) of 1.55 µM. For the same compound, the TGI (OVCAR-3 ovarian) was 7.11 µM, the GI50 (OVCAR-4 ovarian) was 11 µM and the TGI (OVCAR-4 ovarian) was 64.3 µM. For the same compound, the GI50 (OVCAR-5 ovarian) was 4.43 µM, the TGI (OVCAR-5 ovarian) was 18.7 µM and the GI50 (OVCAR-8 ovarian) was 12.4 µM. For the same compound, the TGI (OVCAR-8 ovarian) was 30.8 µM, the GI50 (PC-3 prostate) was 10.9 µM and the TGI (PC-3 prostate) was 23.1 µM. For the same compound, the GI50 (RPMI-8226 leukemia) was 2.67 µM, the TGI (RPMI-8226 leukemia) was 14.7 µM and the GI50 (RXF 393 renal) was 17.2 µM. The TGI (RXF 393 renal) was 48.2 µM, the GI50 (SF-268 CNS) was 13.8 µM and the TGI (SF-268 CNS) was 34.8 µM. For the same compound, the GI50 (SF-295 CNS) was 13.2 µM, the TGI (SF-295 CNS) was 32.6 µM and the GI50 (SF-539 CNS) was 1.03 µM. The TGI (SF-539 CNS) was 3.53 µM, the GI50 (SK-MEL-2 melanoma) was 11.8 µM and the TGI (SK-MEL-2 melanoma) was 27.6 µM. For the same compound, the GI50 (SK-MEL-28 melanoma) was 12.2 µM, the TGI (SK-MEL-28 melanoma) was 63.5 µM and the GI50 (SK-MEL-5 melanoma) was 6.82 µM. It also gave a TGI (SK-MEL-5 melanoma) of 19.2 µM, a GI50 (SK-OV-3 ovarian) of 12 µM and a TGI (SK-OV-3 ovarian) of 44.4 µM. It also gave a GI50 (SN12C renal) of 13.8 µM, a TGI (SN12C renal) of 28.7 µM and a GI50 (SNB-19 CNS) of 20.6 µM. For the same compound, the TGI (SNB-19 CNS) was greater than 100 µM, the GI50 (SR leukemia) was 0.342 µM and the TGI (SR leukemia) was greater than 100 µM. The GI50 (SW-620 colon) was 5.63 µM, the TGI (SW-620 colon) was 17.4 µM and the GI50 (TK-10 renal) was 11.9 µM. The TGI (TK-10 renal) was 24.6 µM, the GI50 (U251 CNS) was 5.96 µM and the TGI (U251 CNS) was 19.5 µM. It also gave a GI50 (UACC-257 melanoma) of 17.4 µM, a TGI (UACC-257 melanoma) of 34.9 µM and a GI50 (UACC-62 melanoma) of 11.6 µM. It also gave a TGI (UACC-62 melanoma) of 23.8 µM, a GI50 (UO-31 renal) of 13.5 µM and a TGI (UO-31 renal) of 32.7 µM.
